Source: the NIST ThermoML archive (doi:10.1021/je200213h)
± gives the expanded uncertainty stated by the source.

Assay: xn = mol fraction of the nth substance listed
Settings: 101 kPa, Liquid, Capillary tube (Ostwald / Ubbelohde) method

CC(C)CCl [1-chloro-2-methylpropane] + CCC(C)CC
kinematic viscosity [m2/s]
Settings | 283.15 K | 298.15 K | 313.15 K
x2 = 0.0522 | 5.703e-07 ± 4.8e-09 | 4.87e-07 ± 4.2e-09 | 4.322e-07 ± 3.8e-09
x2 = 0.1013 | 5.618e-07 ± 4.7e-09 | 4.823e-07 ± 4.2e-09 | 4.275e-07 ± 3.8e-09
x2 = 0.2024 | 5.464e-07 ± 4.6e-09 | 4.717e-07 ± 4.1e-09 | 4.187e-07 ± 3.7e-09
x2 = 0.3032 | 5.324e-07 ± 4.5e-09 | 4.631e-07 ± 4e-09 | 4.113e-07 ± 3.6e-09
x2 = 0.4028 | 5.212e-07 ± 4.4e-09 | 4.55e-07 ± 4e-09 | 4.048e-07 ± 3.6e-09
x2 = 0.5056 | 5.115e-07 ± 4.4e-09 | 4.484e-07 ± 3.9e-09 | 3.994e-07 ± 3.6e-09
x2 = 0.604 | 5.043e-07 ± 4.3e-09 | 4.43e-07 ± 3.9e-09 | 3.951e-07 ± 3.5e-09
x2 = 0.7018 | 4.988e-07 ± 4.3e-09 | 4.396e-07 ± 3.8e-09 | 3.918e-07 ± 3.5e-09
x2 = 0.8002 | 4.949e-07 ± 4.2e-09 | 4.37e-07 ± 3.8e-09 | 3.896e-07 ± 3.5e-09
x2 = 0.898 | 4.93e-07 ± 4.2e-09 | 4.357e-07 ± 3.8e-09 | 3.881e-07 ± 3.5e-09
x2 = 0.9486 | 4.927e-07 ± 4.2e-09 | 4.355e-07 ± 3.8e-09 | 3.879e-07 ± 3.5e-09

CC(C)CCl [1-chloro-2-methylpropane] + CCCCCC
kinematic viscosity [m2/s]
Settings | 283.15 K | 298.15 K | 313.15 K
x2 = 0.0512 | 5.712e-07 ± 4.8e-09 | 4.863e-07 ± 4.2e-09 | 4.32e-07 ± 3.8e-09
x2 = 0.0999 | 5.631e-07 ± 4.7e-09 | 4.817e-07 ± 4.2e-09 | 4.282e-07 ± 3.8e-09
x2 = 0.2003 | 5.468e-07 ± 4.6e-09 | 4.711e-07 ± 4.1e-09 | 4.196e-07 ± 3.7e-09
x2 = 0.2993 | 5.339e-07 ± 4.5e-09 | 4.633e-07 ± 4e-09 | 4.128e-07 ± 3.6e-09
x2 = 0.4005 | 5.239e-07 ± 4.5e-09 | 4.566e-07 ± 4e-09 | 4.077e-07 ± 3.6e-09
x2 = 0.4977 | 5.171e-07 ± 4.4e-09 | 4.517e-07 ± 3.9e-09 | 4.041e-07 ± 3.6e-09
x2 = 0.598 | 5.12e-07 ± 4.4e-09 | 4.478e-07 ± 3.9e-09 | 4.017e-07 ± 3.6e-09
x2 = 0.6993 | 5.089e-07 ± 4.3e-09 | 4.462e-07 ± 3.9e-09 | 4.01e-07 ± 3.6e-09
x2 = 0.799 | 5.077e-07 ± 4.3e-09 | 4.455e-07 ± 3.9e-09 | 4.002e-07 ± 3.6e-09
x2 = 0.8967 | 5.092e-07 ± 4.4e-09 | 4.457e-07 ± 3.9e-09 | 4.006e-07 ± 3.6e-09
x2 = 0.9472 | 5.103e-07 ± 4.4e-09 | 4.474e-07 ± 3.9e-09 | 4.023e-07 ± 3.6e-09

CC(C)CCl [1-chloro-2-methylpropane] + CCCCCCC
kinematic viscosity [m2/s]
Settings | 283.15 K | 298.15 K | 313.15 K
x2 = 0.0507 | 5.818e-07 ± 4.9e-09 | 4.95e-07 ± 4.2e-09 | 4.381e-07 ± 3.8e-09
x2 = 0.0979 | 5.817e-07 ± 4.9e-09 | 4.97e-07 ± 4.3e-09 | 4.396e-07 ± 3.8e-09
x2 = 0.2004 | 5.851e-07 ± 4.9e-09 | 5.015e-07 ± 4.3e-09 | 4.438e-07 ± 3.9e-09
x2 = 0.3008 | 5.905e-07 ± 4.9e-09 | 5.064e-07 ± 4.3e-09 | 4.483e-07 ± 3.9e-09
x2 = 0.3993 | 5.97e-07 ± 5e-09 | 5.134e-07 ± 4.4e-09 | 4.536e-07 ± 3.9e-09
x2 = 0.4999 | 6.054e-07 ± 5.1e-09 | 5.215e-07 ± 4.4e-09 | 4.599e-07 ± 4e-09
x2 = 0.5973 | 6.156e-07 ± 5.1e-09 | 5.306e-07 ± 4.5e-09 | 4.663e-07 ± 4e-09
x2 = 0.6994 | 6.268e-07 ± 5.2e-09 | 5.403e-07 ± 4.6e-09 | 4.733e-07 ± 4.1e-09
x2 = 0.8006 | 6.397e-07 ± 5.3e-09 | 5.516e-07 ± 4.7e-09 | 4.809e-07 ± 4.1e-09
x2 = 0.9002 | 6.538e-07 ± 5.4e-09 | 5.633e-07 ± 4.7e-09 | 4.894e-07 ± 4.2e-09
x2 = 0.9491 | 6.615e-07 ± 5.5e-09 | 5.692e-07 ± 4.8e-09 | 4.94e-07 ± 4.2e-09

CCCCCl [1-chlorobutane] + CCCCCC
kinematic viscosity [m2/s]
Settings | 283.15 K | 298.15 K | 313.15 K
x1 = 0.0508 | 5.501e-07 ± 4.7e-09 | 4.74e-07 ± 4.1e-09 | 4.182e-07 ± 3.7e-09
x1 = 0.0992 | 5.449e-07 ± 4.6e-09 | 4.701e-07 ± 4.1e-09 | 4.169e-07 ± 3.7e-09
x1 = 0.1972 | 5.351e-07 ± 4.5e-09 | 4.634e-07 ± 4e-09 | 4.118e-07 ± 3.6e-09
x1 = 0.2966 | 5.269e-07 ± 4.5e-09 | 4.577e-07 ± 4e-09 | 4.08e-07 ± 3.6e-09
x1 = 0.3976 | 5.198e-07 ± 4.4e-09 | 4.531e-07 ± 3.9e-09 | 4.048e-07 ± 3.6e-09
x1 = 0.5009 | 5.145e-07 ± 4.4e-09 | 4.495e-07 ± 3.9e-09 | 4.027e-07 ± 3.6e-09
x1 = 0.6006 | 5.112e-07 ± 4.4e-09 | 4.467e-07 ± 3.9e-09 | 4.011e-07 ± 3.6e-09
x1 = 0.6982 | 5.092e-07 ± 4.4e-09 | 4.451e-07 ± 3.9e-09 | 4.005e-07 ± 3.6e-09
x1 = 0.7972 | 5.082e-07 ± 4.3e-09 | 4.455e-07 ± 3.9e-09 | 4.01e-07 ± 3.6e-09
x1 = 0.8979 | 5.094e-07 ± 4.4e-09 | 4.464e-07 ± 3.9e-09 | 4.023e-07 ± 3.6e-09
x1 = 0.9472 | 5.103e-07 ± 4.4e-09 | 4.474e-07 ± 3.9e-09 | 4.027e-07 ± 3.6e-09

CCCCCl [1-chlorobutane] + CCCCCCC
kinematic viscosity [m2/s]
Settings | 283.15 K | 298.15 K | 313.15 K
x1 = 0.0508 | 5.595e-07 ± 4.7e-09 | 4.824e-07 ± 4.2e-09 | 4.248e-07 ± 3.7e-09
x1 = 0.1017 | 5.632e-07 ± 4.7e-09 | 4.857e-07 ± 4.2e-09 | 4.278e-07 ± 3.8e-09
x1 = 0.1981 | 5.703e-07 ± 4.8e-09 | 4.927e-07 ± 4.2e-09 | 4.335e-07 ± 3.8e-09
x1 = 0.2989 | 5.788e-07 ± 4.9e-09 | 5e-07 ± 4.3e-09 | 4.396e-07 ± 3.8e-09
x1 = 0.4022 | 5.882e-07 ± 4.9e-09 | 5.088e-07 ± 4.3e-09 | 4.471e-07 ± 3.9e-09
x1 = 0.4998 | 5.984e-07 ± 5e-09 | 5.177e-07 ± 4.4e-09 | 4.545e-07 ± 4e-09
x1 = 0.6008 | 6.102e-07 ± 5.1e-09 | 5.278e-07 ± 4.5e-09 | 4.624e-07 ± 4e-09
x1 = 0.6989 | 6.229e-07 ± 5.2e-09 | 5.386e-07 ± 4.6e-09 | 4.705e-07 ± 4.1e-09
x1 = 0.7985 | 6.367e-07 ± 5.3e-09 | 5.501e-07 ± 4.7e-09 | 4.792e-07 ± 4.1e-09
x1 = 0.898 | 6.52e-07 ± 5.4e-09 | 5.626e-07 ± 4.7e-09 | 4.882e-07 ± 4.2e-09
x1 = 0.9498 | 6.608e-07 ± 5.5e-09 | 5.692e-07 ± 4.8e-09 | 4.935e-07 ± 4.2e-09

CCC(C)(C)C [2,2-dimethylbutane] + CC(C)(C)Cl
kinematic viscosity [m2/s]
Settings | 283.15 K | 298.15 K | 313.15 K
x1 = 0.0499 | 6.937e-07 ± 5.7e-09 | 5.657e-07 ± 4.8e-09 | 4.748e-07 ± 4.1e-09
x1 = 0.1017 | 6.864e-07 ± 5.6e-09 | 5.592e-07 ± 4.7e-09 | 4.715e-07 ± 4.1e-09
x1 = 0.1983 | 6.729e-07 ± 5.5e-09 | 5.493e-07 ± 4.6e-09 | 4.664e-07 ± 4e-09
x1 = 0.3004 | 6.6e-07 ± 5.5e-09 | 5.405e-07 ± 4.6e-09 | 4.607e-07 ± 4e-09
x1 = 0.399 | 6.491e-07 ± 5.4e-09 | 5.333e-07 ± 4.5e-09 | 4.568e-07 ± 4e-09
x1 = 0.4989 | 6.399e-07 ± 5.3e-09 | 5.275e-07 ± 4.5e-09 | 4.538e-07 ± 3.9e-09
x1 = 0.6017 | 6.32e-07 ± 5.2e-09 | 5.225e-07 ± 4.4e-09 | 4.522e-07 ± 3.9e-09
x1 = 0.7034 | 6.27e-07 ± 5.2e-09 | 5.2e-07 ± 4.4e-09 | 4.518e-07 ± 3.9e-09
x1 = 0.8 | 6.228e-07 ± 5.2e-09 | 5.18e-07 ± 4.4e-09 | 4.519e-07 ± 3.9e-09
x1 = 0.8967 | 6.221e-07 ± 5.2e-09 | 5.184e-07 ± 4.4e-09 | 4.541e-07 ± 3.9e-09
x1 = 0.9504 | 6.224e-07 ± 5.2e-09 | 5.19e-07 ± 4.4e-09 | 4.556e-07 ± 4e-09
